{"source": "EPA's ToxValDB 9.5", "tested_on": "Rattus norvegicus", "settings": "for LC50 / LD50: acute; for LC50: inhalation", "key": {"[1]": {"settings": "subchronic, duration: 90 days, oral, diet, Sprague-Dawley"}}, "note": "Several values for one entry are separate records, joined by “and”; a condition that tells them apart may be missing. Equal values may be shown once.", "data": [{"smiles": "CCC(C)Nc1ccc(NC(C)CC)cc1", "note": "(centres undefined) [N,N'-Bis(1-methylpropyl)-1,4-benzenediamine]", "values": [{"measurement": "LC50", "setting": "Sprague-Dawley", "value": "> 0.2", "unit": "µg/mL"}, {"measurement": "LOAEL", "setting": "short-term, duration: 28 days, oral, gavage, Sprague-Dawley", "value": 10, "unit": "mg/kg-day"}, {"measurement": "LOAEL", "setting": "[1]", "value": 500, "unit": "mg/kg-day"}, {"measurement": "NOAEL", "setting": "[1]", "value": 100, "unit": "mg/kg-day"}]}, {"smiles": "CC(CN)CCCN", "note": "(centres undefined) [2-Methylpentanediamine]", "values": [{"measurement": "LC50", "setting": "CRL:CD BR", "value": "4.1 µg/mL and 2.9 µg/mL"}, {"measurement": "LD50", "setting": "oral, gavage, Crl:CD(SD)", "value": 1690, "unit": "mg/kg"}, {"measurement": "NOAEL", "setting": "short-term, duration: 28 days, oral, diet, F, CRL:CD BR", "value": 3000, "unit": "ppm"}, {"measurement": "NOAEL", "setting": "short-term, duration: 28 days, oral, diet, M, CRL:CD BR", "value": 10000, "unit": "ppm"}]}, {"smiles": "COC(=O)CC(C)=O", "note": "[Methyl acetoacetate]", "values": [{"measurement": "NOAEL", "setting": "developmental, oral, gavage, Crj:CD(SD)", "value": "> 1000", "unit": "mg/kg-day"}, {"measurement": "NOAEL", "setting": "short-term, duration: 4 weeks, oral, gavage, F, Sprague-Dawley", "value": 1000, "unit": "mg/kg-day"}, {"measurement": "NOAEL", "setting": "short-term, duration: 4 weeks, oral, gavage, M, Sprague-Dawley", "value": 1000, "unit": "mg/kg-day"}]}, {"smiles": "CS(=O)(=O)O", "note": "[Methanesulfonic acid]", "values": [{"measurement": "LD50", "setting": "oral", "value": "≥ 200 mg/kg and ≤ 400 mg/kg"}]}, {"smiles": "CCN(CC)c1ccc(C(=O)c2ccccc2C(=O)O)c(O)c1", "note": "[2-[4-(Diethylamino)-2-hydroxybenzoyl]benzoic acid]", "values": [{"measurement": "LD50", "setting": "oral, gavage, Sprague-Dawley", "value": "> 5000", "unit": "mg/kg"}]}, {"smiles": "CCCCCCCC/C=C\\CCCCCCCCN", "note": "[(Z)-9-Octadecenylamine]", "values": [{"measurement": "LD50", "setting": "oral, gavage, Sprague-Dawley", "value": "1180 mg/kg and 1690 mg/kg"}]}, {"smiles": "Cc1cc(N(C)C)ccc1[P+](=O)[O-].[Na+]", "values": [{"measurement": "NOAEL", "setting": "reproduction developmental, duration: 14 days, injection, subcutaneous, F, Wistar", "value": 50, "unit": "mg/kg-day"}]}, {"smiles": "COc1ccc(O)cc1", "note": "[4-Methoxyphenol]", "values": [{"measurement": "NOAEL", "setting": "developmental, dermal", "value": 40, "unit": "mg/kg-day"}, {"measurement": "NOAEL", "setting": "reproduction developmental, dermal, F", "value": 40, "unit": "mg/kg-day"}]}, {"smiles": "O=C([O-])CCCCCCCC(=O)[O-].[Li+].[Li+]", "note": "[Nonanedioic acid, dilithium salt]", "values": [{"measurement": "NOAEL", "setting": "subchronic, duration: 90 days, oral, gavage, Sprague-Dawley", "value": 1000, "unit": "mg/kg-day"}]}, {"smiles": "c1ccc(B(c2ccccc2)c2ccccc2)cc1", "note": "[Triphenylborane]", "values": [{"measurement": "LD50", "setting": "oral, gavage, Sprague-Dawley", "value": 196, "unit": "mg/kg"}]}, {"smiles": "CC(O)CN(CCN(CC(C)O)CC(C)O)CC(C)O", "note": "(centres undefined) [1,1',1'',1'''-(Ethylenedinitrilo)tetrakis(2-propanol)]", "values": [{"measurement": "LD50", "setting": "oral, gavage", "value": 11200, "unit": "mg/kg"}, {"measurement": "NOAEL", "setting": "subchronic, duration: 3 months, oral, diet, Harlan", "value": "≥ 600 mg/kg-day and ≤ 900 mg/kg-day"}]}, {"smiles": "COc1ccccc1NC(=O)CC(C)=O", "note": "[N-(2-Methoxyphenyl)-3-oxobutanamide]", "values": [{"measurement": "LD50", "setting": "oral, gavage, Crj:CD", "value": 1640, "unit": "mg/kg"}]}, {"smiles": "NNC(=S)NN", "note": "[Thiocarbazide]", "values": [{"measurement": "LD50", "setting": "dermal, Wistar", "value": "> 500", "unit": "mg/kg"}, {"measurement": "LC50", "setting": "Wistar", "value": "50 mg/m3 and > 75.5 mg/m3"}]}, {"smiles": "CCN(CC#N)c1cccc(C)c1", "note": "[2-(Ethyl(3-methylphenyl)amino)acetonitrile]", "values": [{"measurement": "NOAEL", "setting": "developmental, duration: 38 days, oral, gavage, Sprague-Dawley", "value": 150, "unit": "mg/kg-day"}, {"measurement": "NOAEL", "setting": "reproduction developmental, duration: 38 days, oral, gavage, Sprague-Dawley, generation: F0", "value": 25, "unit": "mg/kg-day"}, {"measurement": "NOAEL", "setting": "reproduction developmental, duration: 38 days, oral, gavage, Sprague-Dawley, generation: F1", "value": 150, "unit": "mg/kg-day"}]}, {"smiles": "CC(COCC(C)OC(=O)c1ccccc1)OC(=O)c1ccccc1", "note": "(centres undefined) [Dipropylene glycol, dibenzoate]", "values": [{"measurement": "LD50", "setting": "dermal, Sprague-Dawley", "value": "> 2000", "unit": "mg/kg"}, {"measurement": "LD50", "setting": "oral, Sprague-Dawley", "value": "5070 mg/kg and 3300 mg/kg and 3910 mg/kg"}, {"measurement": "NOAEL", "setting": "developmental, duration: 13 days, oral, gavage, Sprague-Dawley", "value": "500 mg/kg-day and 250 mg/kg-day"}, {"measurement": "NOAEL", "setting": "reproduction developmental, duration: 38 weeks, oral, diet, Sprague-Dawley, generation: F0", "value": 10000, "unit": "ppm"}, {"measurement": "NOAEL", "setting": "reproduction developmental, duration: 38 weeks, oral, diet, Sprague-Dawley, generation: F1", "value": 10000, "unit": "ppm"}, {"measurement": "NOAEL", "setting": "reproduction developmental, duration: 13 days, oral, gavage, F, Sprague-Dawley", "value": 1000, "unit": "mg/kg-day"}, {"measurement": "NOAEL", "setting": "subchronic, duration: 13 weeks, oral, diet", "value": 1000, "unit": "mg/kg-day"}]}, {"smiles": "CCCCCCCCCCCCOCCOS(=O)(=O)[O-].[Na+]", "values": [{"measurement": "LD50", "setting": "oral", "value": 1600, "unit": "mg/kg"}]}, {"smiles": "OCCN1CCNCC1", "note": "[1-Piperazineethanol]", "values": [{"measurement": "LD50", "setting": "oral, gavage", "value": 2000, "unit": "mg/kg"}, {"measurement": "NOAEL", "setting": "short-term, duration: 7 days, oral, diet, F, Wistar", "value": 1610, "unit": "mg/kg-day"}, {"measurement": "NOAEL", "setting": "short-term, duration: 7 days, oral, diet, M, Wistar", "value": 3720, "unit": "mg/kg-day"}]}, {"smiles": "CCCCCCCC/C=C\\CCCCCCCC#N", "note": "[(Z)-9-Octadecenenitrile]", "values": [{"measurement": "LD50", "setting": "oral, gavage, Sprague-Dawley", "value": "> 5000", "unit": "mg/kg"}]}, {"smiles": "O=c1c2ccccc2[nH]c2cc3c(=O)c4ccccc4[nH]c3cc12", "note": "[5,12-Dihydroquino[2,3-b]acridine-7,14-dione]", "values": [{"measurement": "LC50", "setting": "Crl:CD(SD)", "value": "≥ 3.1", "unit": "µg/mL"}, {"measurement": "LD50", "setting": "oral, gavage, albino", "value": "≥ 7500", "unit": "mg/kg"}]}, {"smiles": "CC(C)(C)c1ccc(O)c(C(C)(C)C)c1", "note": "[2,4-Di-tert-butylphenol]", "values": [{"measurement": "LD50", "setting": "oral, gavage, albino", "value": "1500 mg/kg and 1300 mg/kg and 2100 mg/kg"}]}, {"smiles": "C1CCCNCC1", "note": "[Hexamethyleneimine]", "values": [{"measurement": "LD50", "setting": "oral, gavage, Sprague-Dawley", "value": "9.6 mg/kg and ≥ 8 mg/kg and ≤ 11.4 mg/kg"}]}, {"smiles": "CCCCCCC1C=CC(CCCCCCCC(=O)O)CC1C(=O)O", "note": "(centres undefined) [5(6)-Carboxy-4-hexyl-2-cyclohexene-1-octanoic acid]", "values": [{"measurement": "LD50", "setting": "oral, gavage, Sprague-Dawley", "value": 6180, "unit": "mg/kg"}]}]}
